US7294509B2, “Pre-adipose cell lines” (Nestec S.A., priority 2000, dated 2007)

Legend:
Format in all cases: cell-based, human
Chub-S7 cells [1] = test: Adipocyte marker gene expression by real-time RT-PCR during Chub-S7 cell differentiation; conditions: for LPL mRNA fold-increase / aP2 mRNA fold-increase: day 17 as compared to day 0, 1 μM Dex alone or with 1 μM BRL49653 from day 3
Description: Adipocyte differentiation of Chub-S7 cells was tested under serum-free culture conditions. To promote pre-adipocyte differentiation, confluent cells were incubated with a basal medium (see Material and Methods) supplemented with 500 μM IBMX and 1 μM Dex for the first 3 days, and 1 μM of a PPARγ agonist (BRL49653) and 1 μM Dex from day 3 to 17. This condition was compared to the basal medium alone or supplemented with Dex plus IBMX from day 0 to 3 and Dex alone from day 3 to 17. To determine whether Chub-S7 cells were able to differentiate, the expression of adipocyte markers was assessed, by real-time RT-PCR, at different time points during cellular maturation. These markers included i) transcriptional factors involved in adipogenesis such as peroxisome proliferator-activated receptor γ (PPARγ) and CAAT/enhancer binding protein α (C/EBPα), ii) genes involved in lipid metabolism such as lipoprotein lipase (LPL) and adipocyte fatty acid binding protein (aP2), and finally iii) adipocyte secreted factors such as adipsin and leptin.
Chub-S7 cells were cultured from day 0 to 17 in the presence of the basal medium as defined in Material and Methods (m), or in the basal medium with 1 μM Dex plus 500 μM IBMX from day 0 to 3 and dexamethasone from day 3 to 17 (●) or supplemented with 1 μM BRL49653 (▪). The arrow indicates the day from which BRL49653 was added to the medium. Relative gene expression was quantified by real-time RT-PCR. Data are the means±SEM of values obtained at least in four separate experiments. […] Top panels show representative RT-PCRs performed at a number of cycle defined according to the linear amplification of the genes (see Material and Methods).
Cells were grown in a mixture of DMEM/F12 media supplemented with 10% FBS, 2 mM glutamine, 100 U/ml penicillin/streptamycin until confluency. For differentiation, cells were washed with PBS and cultured with a serum-free medium consisting of a mixture of DMEM/F12 media supplemented with 15 mM NaHCO3, 17 μM D-panthotenic acid, 15 mM Hepes, 33 μM biotin, 10 μg/ml transferrin, 1 nM triiodothyronin, 850 nM insulin and 500 μg/ml fetuin. This medium, referred to “basal medium” was supplemented with 1 μM dexamethasone (Dex) and 500 μM IBMX from day 0 to 3. Dex was maintained alone or with 1 μM BRL49653 from day 3 to 17 in order to promote differentiation. As stated in Results, oleic acid (OA) complexed with bovine serum albumin (BSA; ratio OA-to-BSA: 5: 1) was added to the medium containing BRL49653 from day 10 to 17. Lipid accumulation in differentiated cells was visualized by Oil red O staining as previously described (22). All the experiments on Chub-S7 cell characterization were performed between passages 18 and 32 (69 to 122 population doublings).
RNAs from Chub-S7 cells cultured from day 0 to 17 were extracted using the NucleoSpin® Total RNA Purification System (Macherey-Nagel, Oensingen Switzerland). Reverse transcription was performed with an input of 10 μg of total RNA using the 1st strand cDNA synthesis kit for RT-PCR (AMV; Roche Biomedical, Basel, Switzerland) with oligo d(T)15 as primer. Real-time reverse transcription-polymerase chain reaction analyses were performed in a fluorescent temperature cycler (GeneAmp® PCR 5700 Sequence Detection System; Applied Biosystem) according to the recommendations of the manufacturer. Briefly, after initial denaturation at 50° C. for 2 min and 95° C. for 10 min, reactions were cycled 40 times using the following parameters for all genes studied: 95° C. for 15s, primer annealing and extension at 60° C. for 1 min. SYBR Green I fluorescence was detected at the end of each cycle to monitor the amount of PCR product formed during that cycle. Primers used for the amplification of cDNAs of interest were synthesized by Mycrosynth (Windisch, Switzerland).
Cycle to cycle fluorescence emission was monitored and quantified using the GenAmp software provided by Applied Biosystem. […]

Chub-S7 cells [2] = test: Lipolysis (glycerol release) in differentiated Chub-S7 cells; conditions: 1 μM isoproterenol, 1 h; day 17; cells differentiated with BRL49653
Description: Lipolytic capacity of differentiated cells was assessed by measuring glycerol release, after stimulation or not for 1 h with 1 μM isoproterenol (Iso), a non-specific β-adrenergic agonist. Cells were differentiated in the presence of BRL49653 alone.
A. Chub-S7 cells were differentiated in the presence of 1 μM Dex plus 500 μM IBMX from day 0 to 3 and dexamethasone plus 1 μM BRL49653 from day 3 to 17. Glycerol released in the medium was measured in the presence or in the absence of 1 μM isoproterenol. Data are the means of values obtained at least in four separate experiments. […] B. Chub-S7 cells were cultured from day 0 to 17 in the presence of the basal medium (m), or in the basal medium with 1 μM Dex plus 500 μM IBMX from day 0 to 3 and Dex from day3 to 17 (●) or supplemented with 1 μM BRL49653 (▪). Data are the means±SEM of values obtained at least in four separate experiments.
(iv) Glycerol-3-phosphate dehydrogenase activity and lipolysis measurements Glycerol-3-phosphate dehydrogenase (GPDH) activity measured at different times during the differentiation process of Chub-S7 cells was determined using the enzymatic assay previously described (23). Lipolysis was determined at day 17 after confluency. […] Glycerol released in the medium was measured using the glycerokinase enzymatic radiometric assay described by Bradley and Kaslow (24).

Chub-S7 cells [3] = test: Triglyceride accumulation in differentiated Chub-S7 cells (Oil red O staining); conditions: 100 μM OA complexed with BSA, day 10 to 17, in differentiation medium containing BRL49653
Description: To study the ability of differentiated Chub-S7 cells to accumulate intracellular lipids, cells cultured for 17 days in the absence or in the presence of BRL49653 were fixed and stained with Oil-red O. Almost all the differentiated cells were able to accumulate at least one single lipid droplet and few of them presented large multilocular droplets (FIG. 10B).
Chub-S7 cells were grown in the presence of the basal medium with 1 μM dexamethasone plus 500 μM IBMX from day 0 to 3 and Dex from day 3 to 17 or supplemented with 1 μM BRL49653 alone or in the presence of 100 μM OA from day 10 to 17. At day 17, cells were fixed and triglycerides were visualized using the oil-red O staining. A: Staining of culture wells containing Chub-S7 cells differentiated under the conditions described above. B: Morphology of Chub-S7 cells differentiated with dexamethasone and BRL49653 or in the same medium supplemented with oleate (Magnitude 400×). Data are representative of at least 3 independent experiments.
Cells were grown in a mixture of DMEM/F12 media supplemented with 10% FBS, 2 mM glutamine, 100 U/ml penicillin/streptamycin until confluency. […]

CN(CCOc1ccc(CC2SC(=O)NC2=O)cc1)c1ccccn1 (centres unmarked) [BRL49653]
leptin mRNA, higher in presence of BRL49653 compared to Dex alone (Chub-S7 cells [1]; day 17, 1 μM BRL49653): 2 fold | LPL mRNA fold-increase (Chub-S7 cells [1]): 308 fold-increase | aP2 mRNA fold-increase (Chub-S7 cells [1]): 8372 fold-increase

C[C@@H]1C[C@H]2[C@@H]3CCC4=CC(=O)C=C[C@]4(C)[C@@]3(F)[C@@H](O)C[C@]2(C)[C@@]1(O)C(=O)CO [Dex, Dexamethasone]
LPL mRNA fold-increase (Chub-S7 cells [1]): 16 fold-increase | aP2 mRNA fold-increase (Chub-S7 cells [1]): 8 fold-increase

CC(C)NCC(O)c1ccc(O)c(O)c1 (centres unmarked) [Iso, isoproterenol]
increase in lipolysis (glycerol release) (Chub-S7 cells [2]): 40.5%

CCCCCCCC/C=C\CCCCCCCC(=O)O [OA, oleic acid]
triglyceride content (Chub-S7 cells [3]): dramatic increase | expression of LPL, C/EBPα, aP2, leptin and adipsin induced by BRL49653 (Chub-S7 cells [1]; 100 μM OA day 10 to 17, data not shown): did not affect
